“And” between values parts separate entries of the source, which are not always exact repeats. Equal entries are not always repeated.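 Briefly, cells in 96-well plates were exposed to five compound concentrations for 48 h, and endpoints were estimated by linear interpolation. GI50 marks 50% less growth. TGI denotes the concentration required for complete inhibition of growth.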
Tests used:
Assay in all cases: DTP human tumour cell line panel, 48 h
MDA-MB-435 = test system: MDA-MB-435
ACHN renal = test system: ACHN renal
SNB-19 CNS = test system: SNB-19 CNS
MCF7 breast = test system: MCF7 breast
HCT-116 colon = test system: HCT-116 colon
OVCAR-4 ovarian = test system: OVCAR-4 ovarian
BT-549 breast = test system: BT-549 breast
UO-31 renal = test system: UO-31 renal
MDA-MB-231 breast = test system: MDA-MB-231 breast
KM12 colon = test system: KM12 colon

Row | SMILES | GI50 (MDA-MB-435) | TGI (MDA-MB-435) | GI50 (ACHN renal) | TGI (ACHN renal) | GI50 (SNB-19 CNS) | TGI (SNB-19 CNS) | GI50 (MCF7 breast) | TGI (MCF7 breast) | GI50 (HCT-116 colon) | TGI (HCT-116 colon) | GI50 (OVCAR-4 ovarian) | TGI (OVCAR-4 ovarian) | GI50 (BT-549 breast) | TGI (BT-549 breast) | GI50 (UO-31 renal) | TGI (UO-31 renal) | GI50 (MDA-MB-231 breast) | TGI (MDA-MB-231 breast) | GI50 (KM12 colon) | TGI (KM12 colon)
1 | COc1cc(-c2nn(-c3cccc(NC(=O)CCN4CCN(c5ccccc5)CC4)c3)cc2-c2ccncc2)ccc1Cl | 2.57 µM | 13 µM | 2.67 µM | > 100 µM | 4.38 µM | > 100 µM | 2.55 µM | > 100 µM | 2.85 µM | > 100 µM | 3.03 µM | > 100 µM | 3.17 µM | > 100 µM | 2.9 µM | 48 µM | 2.28 µM | 7.91 µM | 2.45 µM | 9.97 µM
2 | CC(=O)OCC1OC(n2c3c(cc(C#N)c2=S)CCCC3)C(OC(C)=O)C(OC(C)=O)C1OC(C)=O (configuration not stated) |  | > 100 µM |  | > 100 µM | > 100 µM and 21.5 µM | > 100 µM and 54.4 µM | 48.4 µM and > 100 µM | > 100 µM | > 93.3 µM | > 100 µM |  | > 100 µM |  | > 100 µM |  | > 100 µM |  | > 100 µM | 31.7 µM and > 100 µM | > 100 µM
3 | Clc1ccc(CN2CCCN(Cc3ccc(Cl)cc3)C2c2cc3ccccc3c3ccccc23)cc1 |  | > 100 µM |  | > 100 µM |  | > 100 µM |  | > 100 µM |  | > 100 µM |  | > 100 µM |  | > 100 µM |  | > 100 µM |  | > 100 µM |  | > 100 µM
4 | C[C@@H]1CCc2ncc(F)cc2[C@H]2CCCN2c2ccn3ncc(c3n2)C(=O)N1 | 83.1 µM | > 100 µM | 65.9 µM | > 100 µM | > 100 µM | > 100 µM | 53.1 µM | > 100 µM | > 100 µM | > 100 µM | 62.4 µM | > 100 µM | 69.8 µM | > 100 µM | 29.8 µM | > 100 µM | 29.9 µM | > 100 µM |  | > 100 µM
5 | C[As](C)SC1OCC(O)C(O)C1O (configuration not stated) | 0.13 µM | 1.32 µM | 0.148 µM | 0.624 µM | 4.22 µM | 27.4 µM | 0.173 µM | 1.29 µM | 0.244 µM | 1.37 µM | 1.09 µM | 7.63 µM | 0.363 µM | 1.5 µM | 0.109 µM | 0.53 µM | 0.224 µM | 0.63 µM | 0.387 µM | 3.83 µM
6 | O=CN1N=C(c2cccc(Nc3ccnc4cc(Cl)ccc34)c2)CC1c1ccc(Cl)cc1 (configuration not stated) | 0.293 µM | 24.9 µM | 5.17 µM | > 100 µM | 3.48 µM | > 100 µM | 0.81 µM | > 100 µM | 0.597 µM | 5.29 µM | 4.13 µM | > 100 µM | 1.36 µM | 16.2 µM | 0.878 µM | > 100 µM | 2.12 µM | > 100 µM | 0.591 µM | > 100 µM
7 | COc1ccc(/C=C/C(=O)c2cc3c(N)c(C(=O)Nc4ccc(OC)cc4)sc3nc2C)cc1 | 0.0189 µM | 0.0777 µM | 0.397 µM | > 50 µM | 0.746 µM | > 41.3 µM | 0.0644 µM | > 50 µM | 0.0634 µM | 17.5 µM | 0.324 µM | > 50 µM | 0.571 µM | > 50 µM | 0.988 µM | > 50 µM | 1.28 µM | 22 µM | 0.203 µM | 20.5 µM
8 | COc1cc(-c2nn(-c3cccc(NC(=O)CCNc4ccc(N5CCOCC5)cc4)c3)cc2-c2ccncc2)ccc1Cl | 2.41 µM | 7.28 µM | 2.44 µM | 41.4 µM | 3.34 µM | > 100 µM | 2.47 µM | 11.5 µM | 2.31 µM | > 100 µM | 2.6 µM | 16.6 µM | 3.41 µM | 31 µM | 2.7 µM | > 100 µM | 2.05 µM | 7.18 µM | 2.44 µM | 20 µM
9 | Nn1c(-c2ccc(Cl)cc2)nc2c(-c3ccc(Cl)cc3)nc3ccc(Cl)cc3c2c1=O | > 100 µM | > 100 µM | 5.42 µM | 25.5 µM | 9.06 µM | 47.7 µM | 4.1 µM | > 100 µM | 5.79 µM | > 100 µM | 3.55 µM | 15.1 µM | 14.5 µM | 60.2 µM | 16.9 µM | > 100 µM | 14.1 µM | 62.5 µM | > 100 µM | > 100 µM
10 | O=c1[nH]cnc2n[nH]nc12 | 0.448 µM | > 100 µM |  | > 100 µM |  | > 100 µM | 24 µM | > 100 µM |  | 28.3 µM |  | > 84.8 µM | 2.65 µM | > 100 µM |  | > 100 µM | 1.67 µM | > 100 µM |  | > 100 µM
11 | N#[N+]c1ccc(Nc2ccccc2)cc1 | 1.83 µg/mL | 17.7 µg/mL | > 50 µg/mL | > 50 µg/mL | > 50 µg/mL | > 50 µg/mL | > 50 µg/mL | > 50 µg/mL | > 50 µg/mL | > 50 µg/mL | 0.472 µg/mL | 2.27 µg/mL | > 50 µg/mL | > 50 µg/mL | > 50 µg/mL | > 50 µg/mL | > 50 µg/mL | > 50 µg/mL | 3.11 µg/mL | > 50 µg/mL
12 | COc1ccccc1C(=O)N(Cc1ccccc1)c1ccc(Cl)c(C(=O)OC(C)C)c1 |  | > 100 µM |  | 96.8 µM |  | > 100 µM |  | > 100 µM |  | > 100 µM |  | > 100 µM |  | > 100 µM |  | 54.1 µM |  | > 100 µM |  | > 81 µM
13 | CNC(=O)OCc1nc(SC)n(C)c1COC(=O)NC |  | 327 µM |  | 361 µM |  | 743 µM |  | 622 µM |  | 372 µM |  | 281 µM |  | 300 µM |  | 444 µM |  | 430 µM |  | 380 µM
14 | Cn1c(=O)c2c(nc(N/N=C/c3ccccc3C(=O)O)n2C)n(C)c1=O |  | > 100 µM |  | > 100 µM |  | > 100 µM |  | > 100 µM |  | > 100 µM |  | > 100 µM |  | > 100 µM |  | > 100 µM |  | > 100 µM |  | > 100 µM
15 | CC1(C)N=C(N)N=C(N)N1c1cccc(CCc2ccccc2)c1 | 0.154 µM | 35.4 µM | 13.4 µM | > 100 µM | 0.696 µM | > 100 µM | 0.297 µM | > 43 µM | 0.208 µM | > 100 µM | 0.528 µM | 79.5 µM | 0.577 µM | > 46.7 µM | > 100 µM | > 100 µM | 4.27 µM | > 100 µM | 0.456 µM | 14.6 µM
16 | CC(O)[C@H](NC(=O)N[C@@H](CC(N)=O)c1nc(N2CCNCC2)no1)C(=O)O (some centres not stated) | > 100 µM | > 100 µM | > 100 µM | > 100 µM | > 100 µM | > 100 µM | > 100 µM | > 100 µM | > 100 µM | > 100 µM | > 100 µM | > 100 µM | > 100 µM | > 100 µM | > 100 µM | > 100 µM | > 100 µM | > 100 µM | > 100 µM | > 100 µM
17 | O=C(O)c1ccccc1NCn1c(=S)sc2ccccc21 |  | > 100 µM |  | > 100 µM |  | > 100 µM |  | 51.7 µM |  | > 100 µM |  | > 100 µM |  | > 100 µM |  | > 100 µM |  | > 100 µM |  | > 100 µM
18 | OCC(O)C(O)C(O)C(O)c1nnc2c(-c3ccccc3)nc3ccccc3n12 (configuration not stated) | > 100 µM | > 100 µM | > 100 µM | > 100 µM | > 100 µM | > 100 µM | 43.5 µM | > 100 µM | > 100 µM | > 100 µM | 16 µM | 96.3 µM | 56.4 µM | > 100 µM | > 100 µM | > 100 µM | 32.8 µM | > 100 µM | > 100 µM | > 100 µM
